Results on 50 substances are retold here after patent US11214803B2, “Modulators of YAP1 expression” (Ionis Pharmaceuticals, Inc., priority 2019, dated 2022).

Strand notation (5' to 3'): a small letter for the sugar, then the base; units joined by * are phosphorothioate-linked, units joined directly phosphodiester-linked; [ ] holds rarer units or linkages, { } end groups; capitals alone tell only the bases. e = 2'-O-(2-methoxyethyl) (MOE); k = constrained ethyl (cEt); [5mC] = 5-methylcytosine; d = 2'-deoxy (DNA)

One series deals with Yap1 mRNA. Description: Antisense inhibition of human Yap1 in SNU-449 cells by modified oligonucleotides, single dose (Example 5, RTS36584). It counts as cell-based. Conditions: Table 40 (separate experiment); SNU-449 cells, 10,000 cells per well, free uptake, 2,000 nM oligonucleotide, approx. 48 hours; RTS36584; normalized to RIBOGREEN; Yap1 mRNA relative to untreated control. The essentials: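 SNU-449 cells (10,000/well) took up 2,000 nM oligonucleotide by free uptake for about 48 h. Yap1 mRNA was measured by qRT-PCR with primer probe set RTS36584 and normalised to RIBOGREEN total RNA. Values are % of untreated control; asterisked oligos target the amplicon region.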
On to “1198714 (kT*eG*kT*d[5mC]*dT*d[5mC]*dA*dT*dG*d[5mC]*d[5mC]*dT*eT*eA*kT*kA; antisense) [Compound 1198714]”, for which the “YAP1 (% UTC)” value came out at 20 % UTC.

Regarding “1198715 (kA*eT*kT*dG*dT*d[5mC]*dT*d[5mC]*dA*dT*dG*d[5mC]*e[5mC]*eT*kT*kA; antisense) [Compound 1198715]”, the “YAP1 (% UTC)” value came to 33 % UTC. On the same count and under the same terms, to “1198716 (kA*eA*kT*dT*dG*dT*d[5mC]*dT*d[5mC]*dA*dT*dG*e[5mC]*e[5mC]*kT*kT; antisense) [Compound 1198716]” belongs 27 % UTC.

As to “1198717 (kA*eA*kA*dT*dT*dG*dT*d[5mC]*dT*d[5mC]*dA*dT*eG*e[5mC]*k[5mC]*kT; antisense) [Compound 1198717]”, the “YAP1 (% UTC)” value turned out to be 41 % UTC. Still for that read-out and setting: to “1198718 (kG*eA*kA*dA*dT*dT*dG*dT*d[5mC]*dT*d[5mC]*dA*eT*eG*k[5mC]*k[5mC]; antisense) [Compound 1198718]” belongs 9 % UTC.

Still in this series, the particulars now being: Table 41; SNU-449 cells, 10,000 cells per well, free uptake, 2,000 nM modified oligonucleotide, approximately 48 hours; RTS36584; normalized to RIBOGREEN; Yap1 mRNA relative to untreated control cells.
For the substance “1198669 (antisense kA*kG*dG*dA*dT*dG*d[5mC]*dA*dT*dG*dG*dT*kT*eT*kT*eT) [Compound 1198669]”, the “YAP1 (% UTC)” value came out at 61 % UTC.

For “1198670 (antisense kT*kT*dA*dG*dG*dA*dT*dG*d[5mC]*dA*dT*dG*kG*eT*kT*eT) [Compound 1198670]”, the “YAP1 (% UTC)” value came to 55 % UTC. Still for that read-out and setting: the figure for “1198671 (antisense kT*kT*dT*dA*dG*dG*dA*dT*dG*d[5mC]*dA*dT*kG*eG*kT*eT) [Compound 1198671]” is 26 % UTC; for “1198672 (antisense kA*kT*dT*dT*dA*dG*dG*dA*dT*dG*d[5mC]*dA*kT*eG*kG*eT) [Compound 1198672]” it is 41 % UTC. Same read-out and setting: the figure for “1198673 (antisense kG*kA*dT*dT*dT*dA*dG*dG*dA*dT*dG*d[5mC]*kA*eT*kG*eG) [Compound 1198673]” is 10 % UTC; for “1198674 (antisense kA*kG*dA*dT*dT*dT*dA*dG*dG*dA*dT*dG*k[5mC]*eA*kT*eG) [Compound 1198674]” it is 21 % UTC; for “1198675 (antisense k[5mC]*kA*dG*dA*dT*dT*dT*dA*dG*dG*dA*dT*kG*e[5mC]*kA*eT) [Compound 1198675]” it is 35 % UTC.

Regarding “1198676 (antisense kT*k[5mC]*dA*dG*dA*dT*dT*dT*dA*dG*dG*dA*kT*eG*k[5mC]*eA) [Compound 1198676]”, the “YAP1 (% UTC)” value is 52 % UTC.

Regarding “1198677 (antisense kA*kT*dT*d[5mC]*dA*dG*dA*dT*dT*dT*dA*dG*kG*eA*kT*eG) [Compound 1198677]”, the “YAP1 (% UTC)” value stood at 87 % UTC.

Turning to “1198687 (antisense kA*kT*dT*dG*d[5mC]*dA*dA*dT*d[5mC]*dT*dG*dT*k[5mC]*eT*kG*eA) [Compound 1198687]”, the “YAP1 (% UTC)” value is reported as 55 % UTC. “1198688 (antisense kA*kT*dA*dT*dT*dG*d[5mC]*dA*dA*dT*d[5mC]*dT*kG*eT*k[5mC]*eT) [Compound 1198688]”: the “YAP1 (% UTC)” value is on record as 48 % UTC. On the same count and under the same terms, to “1198689 (antisense kA*kA*dT*dA*dT*dT*dG*d[5mC]*dA*dA*dT*d[5mC]*kT*eG*kT*e[5mC]) [Compound 1198689]” belongs 91 % UTC; to “1198690 (antisense kT*kA*dA*dT*dA*dT*dT*dG*d[5mC]*dA*dA*dT*k[5mC]*eT*kG*eT) [Compound 1198690]”, 64 % UTC.

For “1198691 (antisense kG*kT*dA*dA*dT*dA*dT*dT*dG*d[5mC]*dA*dA*kT*e[5mC]*kT*eG) [Compound 1198691]”, the “YAP1 (% UTC)” value is on record as 38 % UTC. On the same count and under the same terms, to “1198692 (antisense kT*kG*dT*dA*dA*dT*dA*dT*dT*dG*d[5mC]*dA*kA*eT*k[5mC]*eT) [Compound 1198692]” belongs 120 % UTC.

Still in this series, the particulars now being: Table 42 (separate experiment); SNU-449 cells, 10,000 cells per well, free uptake, 2,000 nM modified oligonucleotide, approximately 48 hours; RTS36584; normalized to RIBOGREEN; Yap1 mRNA relative to untreated control cells.
For “1198678 (antisense kA*kT*dA*dT*dG*dG*dT*dT*dT*dT*dG*dT*kG*eT*kG*eT) [Compound 1198678]”, the “YAP1 (% UTC)” value came out at 58 % UTC. Still for that read-out and setting: to “1198679 (antisense TTATATGGTTTTGTGT; cEt/MOE gapmer, phosphorothioate, chemistry not fully specified) [Compound 1198679]” belongs 54 % UTC; to “1198680 (antisense k[5mC]*kT*dT*dA*dT*dA*dT*dG*dG*dT*dT*dT*kT*eG*kT*eG) [Compound 1198680]”, 28 % UTC.

For “1198681 (antisense T_{ks}C_{ks}T_{ds}T_{ds}A_{ds}T_{ds}A_{ds}T_{ds}G_{ds}G_{ds}T_{ds}T_{ds}T_{ks}T_{es}G_{ks}T_{e}; as printed in the source, key not given here) [Compound 1198681]”, the “YAP1 (% UTC)” value was found to be 54 % UTC.

Consider “1198682 (antisense k[5mC]*kT*d[5mC]*dT*dT*dA*dT*dA*dT*dG*dG*dT*kT*eT*kT*eG) [Compound 1198682]”, for which the “YAP1 (% UTC)” value was 25 % UTC. Take “1198683 (antisense kA*k[5mC]*dT*d[5mC]*dT*dT*dA*dT*dA*dT*dG*dG*kT*eT*kT*eT) [Compound 1198683]”: the “YAP1 (% UTC)” value was determined as 27 % UTC.

For the substance “1198684 (antisense kA*kA*d[5mC]*dT*d[5mC]*dT*dT*dA*dT*dA*dT*dG*kG*eT*kT*eT) [Compound 1198684]”, the “YAP1 (% UTC)” value was determined as 75 % UTC.

Consider “1198685 (antisense k[5mC]*kA*dA*d[5mC]*dT*d[5mC]*dT*dT*dA*dT*dA*dT*kG*eG*kT*eT) [Compound 1198685]”, for which the “YAP1 (% UTC)” value worked out at 70 % UTC.

“1198686 (antisense kG*kA*d[5mC]*dA*dA*d[5mC]*dT*d[5mC]*dT*dT*dA*dT*kA*eT*kG*eG) [Compound 1198686]”: the “YAP1 (% UTC)” value came out at 78 % UTC. Same read-out and setting: the figure for “1198693 (antisense kA*kT*dG*dT*dA*dA*dT*dA*dT*dT*dG*d[5mC]*kA*eA*kT*e[5mC]) [Compound 1198693]” is 92 % UTC; for “1198694 (antisense kT*kA*dT*dG*dT*dA*dA*dT*dA*dT*dT*dG*k[5mC]*eA*kA*eT) [Compound 1198694]” it is 110 % UTC. Turning to “1198695 (antisense kT*kT*dT*dA*dT*dG*dT*dA*dA*dT*dA*dT*kT*eG*k[5mC]*eA) [Compound 1198695]”, the “YAP1 (% UTC)” value is 75 % UTC.

Regarding “1198696 (antisense kT*kG*dT*dA*dT*dG*dT*d[5mC]*dA*dG*dA*dA*kG*eA*kG*eT) [Compound 1198696]”, the “YAP1 (% UTC)” value is listed as 12 % UTC. The same measure, in the same setting: the figure for “1198697 (antisense kA*kG*dT*dG*dT*dA*dT*dG*dT*d[5mC]*dA*dG*kA*eA*kG*eA) [Compound 1198697]” is 12 % UTC. Regarding “1198698 (antisense kA*kA*dG*dT*dG*dT*dA*dT*dG*dT*d[5mC]*dA*kG*eA*kA*eG) [Compound 1198698]”, the “YAP1 (% UTC)” value is recorded as 12 % UTC. Still for that read-out and setting: to “1198699 (kA*kA*dA*dG*dT*dG*dT*dA*dT*dG*dT*d[5mC]*kA*eG*kA*eA; antisense) [Compound 1198699]” belongs 30 % UTC; to “1198700 (kT*kA*dA*dA*dG*dT*dG*dT*dA*dT*dG*dT*k[5mC]*eA*kG*eA; antisense) [Compound 1198700]”, 26 % UTC.

Regarding “1198701 (kT*kT*dA*dA*dA*dG*dT*dG*dT*dA*dT*dG*kT*e[5mC]*kA*eG; antisense) [Compound 1198701]”, the “YAP1 (% UTC)” value turned out to be 46 % UTC. Take “1198702 (kT*kT*dT*dA*dA*dA*dG*dT*dG*dT*dA*dT*kG*eT*k[5mC]*eA; antisense) [Compound 1198702]”: the “YAP1 (% UTC)” value was found to be 74 % UTC. “1198703 (k[5mC]*kT*dT*dT*dA*dA*dA*dG*dT*dG*dT*dA*kT*eG*kT*e[5mC]; antisense) [Compound 1198703]”: the “YAP1 (% UTC)” value turned out to be 42 % UTC. On the same count and under the same terms, to “1198704 (kA*kA*d[5mC]*dT*dT*dT*dA*dA*dA*dG*dT*dG*kT*eA*kT*eG; antisense) [Compound 1198704]” belongs 72 % UTC; to “1198705 (kT*kA*dA*dG*dG*dT*dT*dT*d[5mC]*d[5mC]*d[5mC]*dA*kG*eA*kT*eT; antisense) [Compound 1198705]”, 70 % UTC. On the same count and under the same terms, to “1198706 (kA*kG*dT*dA*dA*dG*dG*dT*dT*dT*d[5mC]*d[5mC]*k[5mC]*eA*kG*eA; antisense) [Compound 1198706]” belongs 39 % UTC; to “1198707 (kA*kA*dG*dT*dA*dA*dG*dG*dT*dT*dT*d[5mC]*k[5mC]*e[5mC]*kA*eG; antisense) [Compound 1198707]”, 31 % UTC; to “1198708 (kT*kA*dA*dG*dT*dA*dA*dG*dG*dT*dT*dT*k[5mC]*e[5mC]*k[5mC]*eA; antisense) [Compound 1198708]”, 34 % UTC. Take “1198709 (k[5mC]*kT*dA*dA*dG*dT*dA*dA*dG*dG*dT*dT*kT*e[5mC]*k[5mC]*e[5mC]; antisense) [Compound 1198709]”: the “YAP1 (% UTC)” value came out at 29 % UTC. Still for that read-out and setting: the figure for “1198710 (kA*k[5mC]*dT*dA*dA*dG*dT*dA*dA*dG*dG*dT*kT*eT*k[5mC]*e[5mC]; antisense) [Compound 1198710]” is 51 % UTC; for “1198711 (kG*kA*d[5mC]*dT*dA*dA*dG*dT*dA*dA*dG*dG*kT*eT*kT*e[5mC]; antisense) [Compound 1198711]” it is 60 % UTC; for “1198712 (kA*kG*dA*d[5mC]*dT*dA*dA*dG*dT*dA*dA*dG*kG*eT*kT*eT; antisense) [Compound 1198712]” it is 110 % UTC.

Regarding “1198713 (kT*kT*dA*dG*dA*d[5mC]*dT*dA*dA*dG*dT*dA*kA*eG*kG*eT; antisense) [Compound 1198713]”, the “YAP1 (% UTC)” value is given as 62 % UTC.
